Measured values from US20080089860A1, “Therapeutic compositions and methods useful in treating cancer” (priority 2006, published 2008).
Entries after “also recorded” stand apart in the source; their conditions may differ.

Legend:
PRL-1 = molecular target: T1, PRL-1 (Homo sapiens, UniProt Q93096); assay: In vitro PTPase assay, recombinant PRL-1; type: biochemical; details: 0.1-100 μg/ml
T1 construct: made in house; host or cells: E. coli DH5a
From the text: (§1) Sodium stibogluconate, suramin, sodium orthovanadate and GST fusion protein of SHP-1 have been described previously (Pathak et al., J. Imumol. 167, 3391 (2001)). Meglumine antimonate was obtained from Aventis. cDNAs of human PRL-1, PRL-2 and PRL-3 coding region were derived by RT-PCR from H9 cells (Safai, et al., Lancet 1, 1438 (1984)) and inserted in frame into the pGEX vector. cDNA of PRL-1R86 was generated by recombinant DNA technique using PRL-1 cDNA as template following established procedures (Jiao, et al., Mol. Cell. Biol. 16, 6985 (1996)). […]
(§2) In vitro PTPase assays were used to determine the effects of compounds on recombinant PTPases, following established procedures using a synthetic phosphotyrosine peptide or DiFMUP as the substrate (Pathak et al., J. Imumol. 167, 3391 (2001)). […] PTPase activity of individual reactions was measured by adding 100 µL of malachite green solution (UBI) and then quantifying the amounts of free phosphate cleaved by the PTPase from the peptide substrate by spectrometry (OD660 nm). […] Relative PTPase activities were calculated based on the formula: (PTPase activity in the presence of an inhibitory compound/PTPase activity in the absence of the compound)× 100%. […]

PRL-2 = molecular target: T2, PRL-2 (Homo sapiens, UniProt Q12974); assay: In vitro PTPase assay, recombinant PRL-2; type: biochemical
T2 construct: made in house; host or cells: E. coli DH5a
T2 sequence (Q12974 whole entry): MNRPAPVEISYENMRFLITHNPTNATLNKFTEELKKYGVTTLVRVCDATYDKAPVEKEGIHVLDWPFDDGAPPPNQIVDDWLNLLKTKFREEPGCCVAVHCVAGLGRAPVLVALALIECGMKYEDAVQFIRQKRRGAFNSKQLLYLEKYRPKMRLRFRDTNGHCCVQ
From the text: as §1, §2

DS cells = assay: DS lymphoma cell growth, MTT assay; type: cell-based, human; details: day 3; IFN-alpha 1,000 u/ml
Method: (§3) For cell proliferation assays, cells were grown in 10% FCS culture medium containing various amounts of IFNs and/or sodium stibogluconate in 96 well plates and cultured at 37° C. for 3 or 6 days as indicated. The numbers of viable cells in proliferation assays were determined by MTT assays as described in Phatak et al., J. Immunol. 167, 3391 (2001).

DU145 cells = assay: DU145 prostate cancer cell growth, MTT assay; type: cell-based, human; details: single agent, 50 μg/ml and 100 μg/ml
Method: as §3
NIH3T3 (Yi, et al., Blood 85, 87 (1995)), WM9 (Forsberg, et al., Proc. Nat. Acad. Sci. USA 90, 393 (1993)), DU145 (Mickey, et al., Cancer Res. 37, 4049 (1977)), LoVo (Drewinko, et al., Cancer Res. 36, 467 (1976)), HEY (Buick, et al., Cancer Res. 45, 3668 (1985)), U251 (Yoshida, et al., Cancer 50, 410 (1982)), A549 (Giard, et al., J. Natl. Cancer Inst. 51, 1417 (1973)) and SK-N-SH (Helson, et al., Cancer Res. 35, 2594 (1975)) cell lines have been described and were cultured in RPMI 1640 supplemented with 10% fetal calf serum (FCS). For measurement of sodium stibogluconate effects on cell growth in vitro, cells were cultured in the absence (−) or presence (+) of various amounts of sodium stibogluconate for 6 days with viable cells quantified by MTT assays (Mosmann, J. Immunol. Methods 65, 55 (1983)). Percentages of growth inhibition by sodium stibogluconate were calculated (.+−.x %).

[1] = Toxicity in nude mice (viability, body weight); type: in vivo
Method: In light of the relatively rapid rate of clearance of the drug in vivo, 440 mg Sb/kg dosage was used to ensure the detection of the effectiveness of the drug for this initial study.
As discussed above, the dosage of sodium stibogluconate used for the treatment of nude mice was 12 mg Sb/mouse, s.c., daily (or approximately 440 mg/kg body weight). […] As an initial step to assess the toxicity of such a high dosage of sodium stibogluconate in nude mice, the effect of sodium stibogluconate on the viability and body weights of WM9 xenografts nude mice during the 25 day period of the study was determined.

DU145R cells = assay: DU145R cell growth, MTT assay; type: cell-based, human; details: day 6 culture
Method: DU145 cells were cultured in the presence of sodium stibogluconate (100 µg/ml) in 48 well plates for 3 weeks. Cells from a well containing a single colony were transferred to flasks, cultured in sodium stibogluconate-free medium for 3 weeks and used as DU145R cells for further characterization. Growth of DU145R cells in the absence or presence of sodium stibogluconate in day 6 culture was determined by MTT assays. cDNAs of the coding region of PRLs were derived by RT-PCR from DU145 and DU145R cells and sequenced using primers described below.

T1 sequence (Q93096 whole entry): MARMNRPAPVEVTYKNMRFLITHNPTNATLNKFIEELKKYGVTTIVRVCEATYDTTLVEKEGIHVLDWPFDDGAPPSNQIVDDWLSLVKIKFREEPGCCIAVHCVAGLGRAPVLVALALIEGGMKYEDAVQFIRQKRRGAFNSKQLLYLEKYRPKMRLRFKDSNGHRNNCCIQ

PRL-1 activity retained (PRL-1)	effectiveness against PRL-2 (PRL-2)	Structure (SMILES)	activity against DS cells (DS cells)	DU145 cells in day 6 culture (DU145 cells)	tolerability ([1]; 12 mg Sb daily (440 mg Sb/kg daily))	tolerated daily dose in mice, pilot study ([1]; approximately 700-800 mg Sb/kg) [mg Sb]	survival of WM9-inoculated nude mice ([1]; day 25)	growth of DU145R clone in comparison to parental DU145 (DU145R cells)
60-70%	not effective	CC(=O)N1CCN(c2ccc(OCC3COC(Cn4ccnc4)(c4ccc(Cl)cc4Cl)O3)cc2)CC1 (stereo not shown) [ketoconazole]						
70-80%	not effective	N=C(N)c1ccc(OCCCCCOc2ccc(C(=N)N)cc2)cc1 [pentamidine]						
		O.O.O.O.O.O.O.O.O.O=C([O-])[C@@H]1[O][Sb]2([O-])([O][Sb]34([OH])[O][C@H]([C@H](O)CO)[C@H]([O]3)[C@H](C(=O)[O-])[O]4)[O][C@H]([C@H](O)CO)[C@@H]1[O]2.[Na+].[Na+].[Na+] [sodium stibogluconate]	modest activity	killed all cells; also recorded: complete or near complete killing	well tolerated with no serious side effects	20	survived until the end of the study	growth resistance
